Test results published in patent US11040038B2, “Methods for treating diseases associated with abnormal ACVR1 expression and ACVR1 inhibitors for use in the same” (Sumitomo Dainippon Pharma Oncology, Inc., priority 2018, dated 2021).
Where two headings read alike, the source gives them in different places.

Tests used:
ACVR1 R258G = molecular target: T1, ACVR1 R258G (Homo sapiens, UniProt Q04771, R258G); assay: ACVR1 kinase assay, casein substrate, 33P-ATP, filter binding; assay type: biochemical; details: 10 μM ATP
T1 sequence (Q04771 21-509 R258G): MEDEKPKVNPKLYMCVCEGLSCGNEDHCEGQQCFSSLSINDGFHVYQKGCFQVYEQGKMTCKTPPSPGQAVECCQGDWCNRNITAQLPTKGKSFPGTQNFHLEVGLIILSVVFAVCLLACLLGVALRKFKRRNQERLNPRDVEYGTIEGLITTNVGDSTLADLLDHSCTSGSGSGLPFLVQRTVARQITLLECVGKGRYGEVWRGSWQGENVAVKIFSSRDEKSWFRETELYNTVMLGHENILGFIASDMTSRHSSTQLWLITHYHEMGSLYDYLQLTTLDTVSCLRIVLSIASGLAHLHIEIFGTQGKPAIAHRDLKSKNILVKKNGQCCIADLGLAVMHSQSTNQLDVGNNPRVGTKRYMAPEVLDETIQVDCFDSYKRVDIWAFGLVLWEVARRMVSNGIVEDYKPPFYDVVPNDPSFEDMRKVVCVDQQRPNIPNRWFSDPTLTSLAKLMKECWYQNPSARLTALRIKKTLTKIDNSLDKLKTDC
Protocol: In brief, casein-based substrates were prepared. The respective ACVR1 kinase was added to the substrate mixture and hot/cold 33P-ATP (10 μM) was added to initiate the reaction. The activity was then measured with a filter binding method.
The IC50 values against the kinases are listed below in Table 3.

[1] = Preliminary brain PK study; assay type: in vivo; details: mouse, mice, brain tissue
Protocol: In order to be an effective treatment for DIPG, Compound 2 needs to distribute to the brain and more importantly, achieve fairly deep penetration to the pons region of the brain. To assess the general distribution of Compound 2 to the brain, a preliminary brain PK study was conducted. Brain tissue concentrations show very good distribution to the brain (FIG. 4A).

[2] = Pharmacokinetic and tissue distribution study; assay type: in vivo, CD-1 male mice; details: mice, 20 mg/kg PO; for Cmax / Tmax / half-life / AUC(0-t) / AUC: male, CD-1, mouse; for AUC: read-out: AUC0-?
Protocol: An additional pharmacokinetic and tissue distribution study was conducted to comprehensively evaluate Compound 2 exposure in multiple mouse organs. CD-1 male mice were dosed 20 mg/kg, PO with Compound 2 formulated in 20% solutol and 80% saline. Plasma and organs were collected at nine (9) time points and the drug concentrations were determined by LC-MS/MS. […] The results confirmed exposure in clinically relevant target organs, including brain and liver (Table 7).

[3] = Oral pharmacokinetics in a single human DIPG patient; assay type: in vivo; details: free base, nominal 240 mg/m2 PO
Protocol: Compound 2 free base was tested in humans. Oral pharmacokinetics of Compound 2 were determined in a single human patient for the treatment of DIPG. The formulation was free base Compound 2 by gelatin capsule daily for 15 days, followed by a 20-day suspension period. Dosing was resumed by dissolving in juice and administering via nasogastric tube for 9 days. The nominal dose is 240 mg/m2 (PO). Blood samples were collected at four (4) time points and the drug concentrations are determined by LC-MS/MS.
Additional PK parameters were evaluated.

[4] = tested on: ALK2/ACVR1 having various mutations; assay: Activity on ALK2/ACVR1 having various mutations (FIG. 8); assay type: biochemical
Excerpt: Biochemical Studies indicate that mutations in the intracellular domain can have activating effects on ACVR1/ALK2 kinase activity. Many of the known mutations enhance the activity of the receptor in response to the receptor ligand.

[5] = Table 4, route and dose not given
[6] = Table 5, route and dose not given

IC50 (ACVR1 R258G): 51.6 nM
AUC(0-t) [1, 5]: 750 ng·h/mL
Cmax [1, 5]: 691 ng/g
Tmax [1, 5]: 0.083 h
half-life [1, 5]: 1.23 h
AUC(0-inf) ([1]; Table 4, route and dose not printed (FIG. 4A: intravenous and oral)): 758 ng·h/mL
AUC(0-t) [1, 6]: 10300 ng·h/mL
Cmax [1, 6]: 2740 ng/g
Tmax [1, 6]: 1.8 h
half-life [1, 6]: 2.57 h
AUC(0-inf) ([1]; Table 5, route and dose not printed (FIG. 4A: intravenous and oral)): 10300 ng·h/mL
Cmax ([2]; adrenals): 13800 ng/g
Tmax ([2]; adrenals): 1.3 h
half-life ([2]; adrenals): 3.3 h
Cmax ([2]; bladder): 2220 ng/g
Tmax ([2]; bladder): 3 h
half-life ([2]; bladder): 3.1 h
AUC(0-t) ([2]; bone marrow): 1940 ng·h/mL
Cmax ([2]; bone marrow): 240 ng/mL
Tmax ([2]; bone marrow): 4.5 h
half-life ([2]; bone marrow): 4.6 h
AUC ([2]; bone marrow): 2020 ng·h/mL
Cmax ([2]; brain): 1690 ng/g
Tmax ([2]; brain): 3.2 h
half-life ([2]; brain): 2.6 h
Cmax ([2]; intestine): 20200 ng/g
Tmax ([2]; intestine): 1.8 h
half-life ([2]; intestine): 3.6 h
Cmax ([2]; kidney): 31100 ng/g
Tmax ([2]; kidney): 2.3 h
half-life ([2]; kidney): 2.5 h
Cmax ([2]; liver): 79900 ng/g
Tmax ([2]; liver): 0.8 h
half-life ([2]; liver): 3.3 h
Cmax ([2]; lung): 18300 ng/g
Tmax ([2]; lung): 1.3 h
half-life ([2]; lung): 2.8 h
Cmax ([2]; pancreas): 10600 ng/g
Tmax ([2]; pancreas): 3.2 h
half-life ([2]; pancreas): 2.6 h
AUC(0-t) ([2]; plasma): 2340 ng·h/mL
Cmax ([2]; plasma): 378 ng/mL
Tmax ([2]; plasma): 1 h
half-life ([2]; plasma): 3.8 h
AUC ([2]; plasma): 2380 ng·h/mL
Cmax ([2]; spleen): 36200 ng/g
Tmax ([2]; spleen): 6 h
half-life ([2]; spleen): 13.3 h
Cmax ([2]; stomach): 17300 ng/g
Tmax ([2]; stomach): 0.5 h
half-life ([2]; stomach): 3.6 h
AUC0-? ([2]; adrenals): 76421 ng*h/G
AUCLast ([2]; adrenals): 75782 ng*h/G
AUC0-? ([2]; bladder): 17546 ng*h/G
AUCLast ([2]; bladder): 17386 ng*h/G
AUC0-? ([2]; brain): 7756 ng*h/G
AUCLast ([2]; brain): 7729 ng*h/G
AUC0-? ([2]; intestine): 52421 ng*h/G
AUCLast ([2]; intestine): 51891 ng*h/G
AUC0-? ([2]; kidney): 152790 ng*h/G
AUCLast ([2]; kidney): 152492 ng*h/G
AUC0-? ([2]; liver): 286210 ng*h/G
AUCLast ([2]; liver): 284827 ng*h/G
AUC0-? ([2]; lung): 76908 ng*h/G
AUCLast ([2]; lung): 76622 ng*h/G
AUC0-? ([2]; pancreas): 53297 ng*h/G
AUCLast ([2]; pancreas): 53163 ng*h/G
AUC0-? ([2]; spleen): 627382 ng*h/G
AUCLast ([2]; spleen): 406119 ng*h/G
AUC0-? ([2]; stomach): 32717 ng*h/G
AUCLast ([2]; stomach): 32467 ng*h/G
Oral absorption, detection in plasma [3]: detected in plasma 24 hours post-dosing
SMILES: COc1cc(Nc2nccc(Nc3cccnc3-c3ccccn3)n2)ccc1N1CCN(C)CC1 [Compound 2, N^4-(2,2′-bipyridin-3-yl)-N^2-(3-methoxy-4-(4-methylpiperazin-1-yl)phenyl)pyrimidine-2,4-diamine]
Inhibition of ALK2 receptors having various mutations [4]: effective in inhibiting ALK2 receptors having various mutations
